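Where inhibition never reached the appropriate level, the endpoint shown equals the highest concentration tested. Otherwise, values were interpolated linearly from a five-concentration, 48-hour dose response in 96-well plates. GI50 is the concentration that inhibits growth by half.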 Calls of active or inactive are those of the source. No stated cut-off is given here; in the data, active = GI50 up to about 1.1 µM and inactive = higher.
Columns and labels:
Assay in all cases: NCI-60 cell line screen, 48 h
[1] = system: A498
[2] = system: ACHN
[3] = system: DLD-1
[4] = system: EKVX
[5] = system: HOP-62
[6] = system: HOP-92
[7] = system: IGROV-1
[8] = system: M14
[9] = system: NCI-H460
[10] = system: RPMI-8226
[11] = system: SF-539
[12] = system: SW-620
[13] = system: TK-10
[14] = system: U-251
[15] = system: HCC 2998
[16] = system: KM12
[17] = system: BT-549
[18] = system: MDA-MB-435
[19] = system: NCI/ADR-RES
[20] = system: SR

Structure (SMILES)	GI50 [1]	GI50 [2]	GI50 [3]	GI50 [4]	GI50 [5]	GI50 [6]	GI50 [7]	GI50 [8]	GI50 [9]	GI50 [10]	GI50 [11]	GI50 [12]	GI50 [13]	GI50 [14]	GI50 [15]	GI50 [16]	GI50 [17]	GI50 [18]	GI50 [19]	GI50 [20]
COc1ccc(/C(Cl)=C(\C=O)c2ccc(F)cc2)cc1OC	20 µM (inactive)	16.8 µM (inactive)	21.8 µM (inactive)	5 µM (inactive)	15.2 µM (inactive)	6.32 µM (inactive)	31.9 µM (inactive)	17.6 µM (inactive)	19.3 µM (inactive)	6.64 µM (inactive)	23 µM (inactive)	28.7 µM (inactive)	34.3 µM (inactive)	15.6 µM (inactive)	–	–	–	–	–	–
N#CC(/C(CCC(=O)Nc1ccc(Cl)cc1)=N/NC(=O)c1cc2ccccc2cc1O)c1ccccc1 (configuration not stated)	–	24.9 µM (inactive)	33.7 µM (inactive)	34.4 µM (inactive)	31.3 µM (inactive)	40.9 µM (inactive)	31.7 µM (inactive)	32.6 µM (inactive)	30.7 µM (inactive)	14.9 µM (inactive)	–	50.4 µM (inactive)	56.5 µM (inactive)	32.8 µM (inactive)	52.2 µM (inactive)	35.9 µM (inactive)	–	–	–	–
CCOC(=O)C(C)NC(=O)NC12CC3CC(CC(F)(C3)C1)C2 (configuration not stated)	> 100 µM (inactive)	> 100 µM (inactive)	> 100 µM (inactive)	> 100 µM (inactive)	> 100 µM (inactive)	11.5 µM (inactive)	> 100 µM (inactive)	63.8 µM (inactive)	> 100 µM (inactive)	88.3 µM (inactive)	> 100 µM (inactive)	> 100 µM (inactive)	> 100 µM (inactive)	> 100 µM (inactive)	31.8 µM (inactive)	> 100 µM (inactive)	–	–	–	–
COc1ccc(-n2c(Cn3nnc(-c4cccnc4)n3)nn(C3OC(COC(=O)c4ccccc4)C(OC(=O)c4ccccc4)C3OC(=O)c3ccccc3)c2=S)cc1 (configuration not stated)	> 100 µM (inactive)	> 100 µM (inactive)	–	39.4 µM (inactive)	> 100 µM (inactive)	> 100 µM (inactive)	32.4 µM (inactive)	> 100 µM (inactive)	> 100 µM (inactive)	> 100 µM (inactive)	> 100 µM (inactive)	> 100 µM (inactive)	> 100 µM (inactive)	> 100 µM (inactive)	> 100 µM (inactive)	> 100 µM (inactive)	> 100 µM (inactive)	> 100 µM (inactive)	> 100 µM (inactive)	> 100 µM (inactive)
O=C(NCCCCCCNC(=O)OCCSCCn1cc(C(=O)NC(=O)OCc2ccccc2)c(=O)[nH]c1=O)OCCSCCn1cc(C(=O)NC(=O)OCc2ccccc2)c(=O)[nH]c1=O	> 100 µM (inactive)	> 100 µM (inactive)	> 100 µM (inactive)	> 100 µM (inactive)	> 100 µM (inactive)	32.1 µM (inactive)	> 100 µM (inactive)	> 100 µM (inactive)	> 100 µM (inactive)	> 100 µM (inactive)	–	> 100 µM (inactive)	> 100 µM (inactive)	> 100 µM (inactive)	> 100 µM (inactive)	> 100 µM (inactive)	–	–	–	–
O=c1[nH]c(=O)n([C@H]2C[C@@H](CO)[C@@H](O)C2)cc1I	> 100 µM (inactive)	> 100 µM (inactive)	> 100 µM (inactive)	> 100 µM (inactive)	> 100 µM (inactive)	> 100 µM (inactive)	> 100 µM (inactive)	> 100 µM (inactive)	> 100 µM (inactive)	> 100 µM (inactive)	> 100 µM (inactive)	> 100 µM (inactive)	> 100 µM (inactive)	> 100 µM (inactive)	> 100 µM (inactive)	> 100 µM (inactive)	–	–	–	–
Cc1ccc(Nc2nc3c(s2)C(=O)c2ccccc2C3=O)c(C)c1	34 µM (inactive)	15.7 µM (inactive)	15.1 µM (inactive)	18.3 µM (inactive)	16.5 µM (inactive)	9.48 µM (inactive)	16.4 µM (inactive)	14.3 µM (inactive)	22.2 µM (inactive)	12.1 µM (inactive)	17.5 µM (inactive)	20 µM (inactive)	21.8 µM (inactive)	18.9 µM (inactive)	17.2 µM (inactive)	16 µM (inactive)	–	–	–	–
Cn1ccnc1CCc1ccc(Cl)cc1Cl	> 100 µM (inactive)	> 100 µM (inactive)	> 100 µM (inactive)	48.8 µM (inactive)	> 100 µM (inactive)	49.9 µM (inactive)	> 100 µM (inactive)	> 100 µM (inactive)	> 100 µM (inactive)	> 100 µM (inactive)	> 100 µM (inactive)	> 100 µM (inactive)	> 100 µM (inactive)	> 100 µM (inactive)	> 100 µM (inactive)	> 100 µM (inactive)	–	–	–	–
CNC1=C/C(=N/C2=CC(=N/C(=C\C#N)C(C)(C)O)/OC2(C)C)OC1(C)C	30.9 µM (inactive)	4.32 µM (inactive)	–	13.7 µM (inactive)	7.96 µM (inactive)	11.9 µM (inactive)	6.52 µM (inactive)	11.8 µM (inactive)	5.97 µM (inactive)	4.43 µM (inactive)	33.1 µM (inactive)	5.4 µM (inactive)	21.3 µM (inactive)	7.1 µM (inactive)	29.2 µM (inactive)	13.5 µM (inactive)	29.6 µM (inactive)	22.6 µM (inactive)	40.4 µM (inactive)	4.9 µM (inactive)
COC(=O)c1cc(-c2cccn2C)c2c(c1C(=O)OC)c1ccccc1n2C	–	17.9 µM (inactive)	7.62 µM (inactive)	–	–	50.5 µM (inactive)	> 100 µM (inactive)	77.4 µM (inactive)	39.8 µM (inactive)	43.7 µM (inactive)	43.8 µM (inactive)	85.1 µM (inactive)	> 100 µM (inactive)	70.5 µM (inactive)	45.5 µM (inactive)	53.7 µM (inactive)	–	–	–	16.9 µM (inactive)
O=c1[nH]c2cc3cccnc3c(Cl)c2nc1C(F)(F)F	19.2 µM (inactive)	35.9 µM (inactive)	–	9.91 µM (inactive)	29.3 µM (inactive)	7.16 µM (inactive)	12.6 µM (inactive)	28.8 µM (inactive)	27.5 µM (inactive)	26.5 µM (inactive)	40.6 µM (inactive)	> 100 µM (inactive)	68.9 µM (inactive)	50.8 µM (inactive)	42 µM (inactive)	21 µM (inactive)	38.9 µM (inactive)	33.7 µM (inactive)	33.3 µM (inactive)	28.2 µM (inactive)
CCC(C)N1CN(c2ccccc2)C2(CCN(CCCC3(c4ccc(F)cc4)OCCO3)CC2)C1=O (configuration not stated)	22.2 µM (inactive)	6.61 µM (inactive)	–	6.14 µM (inactive)	13.2 µM (inactive)	< 0.01 µM (active)	16.5 µM (inactive)	5.97 µM (inactive)	14.8 µM (inactive)	1.89 µM (inactive)	5.5 µM (inactive)	11.6 µM (inactive)	7.5 µM (inactive)	5.86 µM (inactive)	12.9 µM (inactive)	20.6 µM (inactive)	2 µM (inactive)	18.8 µM (inactive)	13.3 µM (inactive)	6.34 µM (inactive)
Cc1ccc(-n2nc(C(OC3OC(CO)C(O)C(O)C3O)C(O)CO)c3nc4cc(C)c(C)cc4nc32)cc1 (configuration not stated)	> 100 µM (inactive)	> 100 µM (inactive)	> 100 µM (inactive)	> 100 µM (inactive)	> 100 µM (inactive)	–	–	> 100 µM (inactive)	> 100 µM (inactive)	> 100 µM (inactive)	> 100 µM (inactive)	–	> 100 µM (inactive)	> 100 µM (inactive)	> 100 µM (inactive)	> 100 µM (inactive)	–	–	–	–
Cc1cccc(NC(=O)/C(=N\N)C(c2cnc3ccc([N+](=O)[O-])cc3n2)[N+](=O)[O-])c1C (configuration not stated)	–	> 100 µM (inactive)	> 100 µM (inactive)	> 100 µM (inactive)	> 100 µM (inactive)	> 100 µM (inactive)	> 100 µM (inactive)	> 100 µM (inactive)	> 100 µM (inactive)	–	> 100 µM (inactive)	> 100 µM (inactive)	> 100 µM (inactive)	–	> 100 µM (inactive)	41.8 µM (inactive)	–	–	–	> 100 µM (inactive)
Cc1c(C(=O)OCc2ccccc2)[n+]([O-])c2cc(F)c(F)cc2[n+]1[O-]	1.42 µM (inactive)	1.94 µM (inactive)	–	3.26 µM (inactive)	4.67 µM (inactive)	2.21 µM (inactive)	1.73 µM (inactive)	1.77 µM (inactive)	2.46 µM (inactive)	4.41 µM (inactive)	2.52 µM (inactive)	0.64 µM (active)	16.3 µM (inactive)	2.3 µM (inactive)	1.9 µM (inactive)	5.68 µM (inactive)	1.83 µM (inactive)	2.15 µM (inactive)	3.22 µM (inactive)	0.877 µM (active)
CC[C@@]12CCCN3CC[C@]4(c5cccc(OC)c5N(C(C)=O)[C@@H]4CC1)[C@H]32 [ASPIDOSPERMINE]	42.7 µM (inactive)	> 100 µM (inactive)	–	44.2 µM (inactive)	> 100 µM (inactive)	35.6 µM (inactive)	24.2 µM (inactive)	36.5 µM (inactive)	54.3 µM (inactive)	38.2 µM (inactive)	78.5 µM (inactive)	> 100 µM (inactive)	56.5 µM (inactive)	94 µM (inactive)	23 µM (inactive)	84.5 µM (inactive)	86.9 µM (inactive)	38.3 µM (inactive)	> 100 µM (inactive)	27.7 µM (inactive)

Reference: ChEMBL document CHEMBL1201862, “PubChem BioAssay data set” (2004)
